According to PubChem BioAssay (NCI):
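Briefly, cells in 96-well plates were exposed to five compound concentrations for 48 h, and endpoints were estimated by linear interpolation. TGI is the concentration that stops growth completely.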

Columns and labels:
Assay in all cases: NCI tumour cell line growth inhibition, 48 h
[1] = tested on: HOP-62 NSCLC
[2] = tested on: MDA-N
[3] = tested on: IGROV1 ovarian
[4] = tested on: TK-10 renal
[5] = tested on: M14 melanoma
[6] = tested on: SK-MEL-28 melanoma
[7] = tested on: 786-0 renal
[8] = tested on: HCT-116 colon
[9] = tested on: LOX IMVI melanoma
[10] = tested on: HT29 colon
[11] = tested on: SF-539 CNS
[12] = tested on: HCC-2998 colon
[13] = tested on: NCI/ADR-RES ovarian
[14] = tested on: CCRF-CEM leukemia
[15] = tested on: MALME-3M melanoma
[16] = tested on: SK-OV-3 ovarian
[17] = tested on: OVCAR-8 ovarian
[18] = tested on: COLO 205 colon
[19] = tested on: HL-60(TB) leukemia
[20] = tested on: HOP-92 NSCLC
[21] = tested on: SW-620 colon
[22] = tested on: UACC-257 melanoma
[23] = tested on: ACHN renal
[24] = tested on: DU-145 prostate
[25] = tested on: A549 NSCLC
[26] = tested on: U251 CNS
[27] = tested on: OVCAR-5 ovarian
[28] = tested on: PC-3 prostate
[29] = tested on: KM12 colon
[30] = tested on: SNB-75 CNS
[31] = tested on: OVCAR-3 ovarian
[32] = tested on: CAKI-1 renal
[33] = tested on: RXF 393 renal
[34] = tested on: RPMI-8226 leukemia
[35] = tested on: NCI-H23 lung
[36] = tested on: SN12C renal
[37] = tested on: HCT-15 colon
[38] = tested on: NCI-H226 lung
[39] = tested on: NCI-H522 lung
[40] = tested on: OVCAR-4 ovarian
[41] = tested on: K-562 leukemia
[42] = tested on: MDA-MB-435
[43] = tested on: MCF7 breast
[44] = tested on: EKVX NSCLC
[45] = tested on: SK-MEL-5 melanoma
[46] = tested on: UO-31 renal
[47] = tested on: HS 578T breast
[48] = tested on: UACC-62 melanoma
[49] = tested on: SF-295 CNS
[50] = tested on: SK-MEL-2 melanoma
[51] = tested on: MDA-MB-231 breast
[52] = tested on: BT-549 breast
[53] = tested on: T-47D breast
[54] = tested on: SR leukemia
[55] = tested on: SF-268 CNS
[56] = tested on: SNB-19 CNS
[57] = tested on: NCI-H460 lung
[58] = tested on: MOLT-4 leukemia
[59] = tested on: A498 renal
[60] = tested on: LXFL 529 NSCLC
[61] = tested on: SNB-78 CNS
[62] = tested on: DMS 273 small cell lung
[63] = tested on: KM20L2 colon
[64] = tested on: M19-MEL melanoma
[65] = tested on: DMS 114 small cell lung
[66] = tested on: DLD-1 colon
[67] = tested on: XF 498 CNS

CC1CN=C(Nc2cccc(F)c2)S1 (stereo not drawn)
TGI [1]: > 100 µM | TGI [2]: > 100 µM | TGI [3]: > 100 µM | TGI [4]: > 100 µM | TGI [5]: > 100 µM | TGI [6]: > 100 µM | TGI [7]: > 100 µM | TGI [8]: > 100 µM | TGI [9]: > 100 µM | TGI [10]: > 100 µM | TGI [11]: > 100 µM | TGI [12]: > 100 µM | TGI [13]: > 100 µM | TGI [14]: > 100 µM | TGI [15]: > 100 µM | TGI [16]: > 100 µM | TGI [17]: > 100 µM | TGI [18]: > 100 µM | TGI [19]: > 100 µM | TGI [20]: > 100 µM | TGI [21]: > 100 µM | TGI [22]: > 100 µM | TGI [23]: > 100 µM | TGI [24]: > 100 µM | TGI [25]: > 100 µM | TGI [26]: > 100 µM | TGI [27]: > 100 µM | TGI [28]: > 100 µM | TGI [29]: > 100 µM | TGI [30]: > 100 µM | TGI [31]: > 100 µM | TGI [32]: > 100 µM | TGI [33]: > 100 µM | TGI [34]: > 100 µM | TGI [35]: > 100 µM | TGI [36]: > 100 µM | TGI [37]: > 100 µM | TGI [38]: > 100 µM | TGI [39]: > 100 µM | TGI [40]: > 100 µM | TGI [41]: > 100 µM | TGI [42]: > 100 µM | TGI [43]: > 100 µM | TGI [44]: > 100 µM | TGI [45]: > 100 µM | TGI [46]: > 100 µM | TGI [47]: > 100 µM | TGI [48]: > 100 µM | TGI [49]: > 100 µM | TGI [50]: > 100 µM | TGI [51]: 25.2 µM | TGI [52]: > 100 µM | TGI [53]: > 100 µM | TGI [54]: > 100 µM | TGI [55]: > 100 µM | TGI [56]: > 100 µM

N=c1oc2ccccc2cc1-c1nc2ccccc2[nH]1
TGI [1]: > 100 µM | TGI [2]: 40.5 µM | TGI [3]: > 100 µM | TGI [4]: 38.4 µM | TGI [5]: > 100 µM | TGI [6]: > 100 µM | TGI [7]: 28.8 µM | TGI [8]: > 100 µM | TGI [9]: > 100 µM | TGI [10]: > 100 µM | TGI [11]: > 100 µM | TGI [12]: > 100 µM | TGI [13]: 64.2 µM | TGI [57]: > 100 µM | TGI [14]: > 100 µM | TGI [15]: 72 µM | TGI [16]: > 100 µM | TGI [17]: > 100 µM | TGI [18]: > 100 µM | TGI [19]: 87 µM | TGI [20]: 35.5 µM | TGI [21]: > 100 µM | TGI [22]: > 100 µM | TGI [23]: 45.4 µM | TGI [24]: 35.7 µM | TGI [25]: > 100 µM | TGI [26]: > 100 µM | TGI [27]: > 100 µM | TGI [28]: > 100 µM | TGI [29]: > 100 µM | TGI [30]: > 100 µM | TGI [32]: > 100 µM | TGI [33]: > 100 µM | TGI [34]: > 100 µM | TGI [36]: > 100 µM | TGI [37]: > 100 µM | TGI [38]: > 100 µM | TGI [39]: 4.57 µM | TGI [40]: > 100 µM | TGI [41]: 82.6 µM | TGI [58]: > 100 µM | TGI [42]: 48.2 µM | TGI [43]: > 100 µM | TGI [44]: 41.1 µM | TGI [45]: > 100 µM | TGI [46]: 24.8 µM | TGI [47]: > 100 µM | TGI [48]: > 100 µM | TGI [49]: > 100 µM | TGI [50]: > 100 µM | TGI [51]: 57.6 µM | TGI [52]: 87.4 µM | TGI [53]: > 100 µM | TGI [54]: > 100 µM | TGI [55]: > 100 µM | TGI [56]: > 100 µM

O=c1[nH]nc(-c2ccccc2)n1/N=C/c1ccccc1O
TGI [2]: > 100 µM | TGI [3]: > 100 µM | TGI [4]: > 100 µM | TGI [7]: > 100 µM | TGI [8]: > 100 µM | TGI [9]: > 100 µM | TGI [10]: > 100 µM | TGI [11]: > 100 µM | TGI [12]: > 100 µM | TGI [13]: > 100 µM | TGI [57]: > 100 µM | TGI [15]: > 100 µM | TGI [16]: 53.9 µM | TGI [17]: > 100 µM | TGI [18]: > 100 µM | TGI [20]: > 100 µM | TGI [21]: > 100 µM | TGI [22]: > 100 µM | TGI [23]: > 100 µM | TGI [24]: > 100 µM | TGI [25]: > 100 µM | TGI [26]: > 100 µM | TGI [27]: > 100 µM | TGI [28]: > 100 µM | TGI [29]: > 100 µM | TGI [59]: > 100 µM | TGI [31]: > 100 µM | TGI [32]: > 100 µM | TGI [33]: > 100 µM | TGI [34]: > 100 µM | TGI [35]: > 100 µM | TGI [36]: > 100 µM | TGI [37]: > 100 µM | TGI [38]: > 100 µM | TGI [39]: > 100 µM | TGI [40]: > 100 µM | TGI [41]: > 100 µM | TGI [58]: > 100 µM | TGI [42]: > 100 µM | TGI [43]: > 100 µM | TGI [44]: > 100 µM | TGI [45]: > 100 µM | TGI [46]: > 100 µM | TGI [47]: 96.2 µM | TGI [48]: > 100 µM | TGI [49]: > 100 µM | TGI [50]: > 100 µM | TGI [51]: > 100 µM | TGI [52]: > 100 µM | TGI [53]: > 100 µM | TGI [54]: > 100 µM | TGI [55]: > 100 µM | TGI [56]: > 100 µM

COc1ccccc1-c1cc(=O)c2cc(C)c(C)c(C(=O)O)c2o1
TGI [1]: > 100 µM | TGI [60]: > 100 µM | TGI [3]: > 100 µM | TGI [4]: > 100 µM | TGI [5]: > 100 µM | TGI [6]: > 100 µM | TGI [7]: > 100 µM | TGI [8]: > 100 µM | TGI [9]: > 100 µM | TGI [10]: > 100 µM | TGI [11]: > 100 µM | TGI [61]: > 100 µM | TGI [62]: > 100 µM | TGI [63]: > 100 µM | TGI [12]: > 100 µM | TGI [57]: > 100 µM | TGI [14]: > 100 µM | TGI [15]: > 100 µM | TGI [16]: > 100 µM | TGI [17]: > 100 µM | TGI [18]: > 100 µM | TGI [19]: > 100 µM | TGI [20]: > 100 µM | TGI [21]: > 100 µM | TGI [22]: > 100 µM | TGI [23]: > 100 µM | TGI [25]: > 100 µM | TGI [26]: > 100 µM | TGI [27]: > 100 µM | TGI [29]: > 100 µM | TGI [59]: > 100 µM | TGI [30]: > 100 µM | TGI [31]: > 100 µM | TGI [34]: > 100 µM | TGI [35]: > 100 µM | TGI [36]: > 100 µM | TGI [64]: > 100 µM | TGI [37]: > 100 µM | TGI [65]: > 100 µM | TGI [39]: > 100 µM | TGI [40]: > 100 µM | TGI [66]: > 100 µM | TGI [41]: > 100 µM | TGI [58]: > 100 µM | TGI [44]: > 100 µM | TGI [45]: > 100 µM | TGI [46]: > 100 µM | TGI [48]: > 100 µM | TGI [49]: > 100 µM | TGI [50]: > 100 µM | TGI [67]: > 100 µM | TGI [55]: > 100 µM | TGI [56]: > 100 µM
